Data: US20240316008A1, “TREATMENT OF SYSTEMIC IMMUNE ACTIVATION SYNDROMES” (TRANQUIS THERAPEUTICS, INC., priority 2020, published 2024)
Where a name gives a salt, the structure may show the parent alone.

How the values were obtained:
ALS = settings: transgenic mouse model of ALS; cited from earlier work
TNFα = TNFα release by LPS-stimulated BV2 cells (ELISA); assay type: cell-based, murine; settings: BV-2 cells, ELISA, concentration-response
Experimental: First, 100 μl of supernatant was removed from Cell Plate and transferred to a Dilution Plate, which was then centrifuged at 216×g for 10 minutes to remove particulates. The dilution plate was either assayed immediately or aliquots were taken and stored at stored at ≤−20° C.; repeated freeze-thaw cycles were avoided.
Next, a standard curve was prepared by first pipetting 900 ul of Calibrator Diluent RD5K into the 700 pg/mL tube, followed by 200 μl of the appropriate calibrator diluent in the remaining tubes. The stock solution was used to produce a dilution. The resulting tubes were then thoroughly mixed. The Mouse TNFα Standard (700 pg/mL) served as the high standard, and the Calibrator Diluent RD5T served as the zero standard at 0 pg/ml.
Assay Diluent RD1-63 (50 ul) was then added to the center of each well and mixed before and during its use. Then, 50 ul of either standard, control, or sample was added to the center of each well, and covered with adhesive strip. The plate was then mixed for 1 minute and incubated for 2 hours at room temperature.
Each well was then aspirated and washed by filling each well with Wash Buffer (400 ul) five times. After the last wash, the remaining Wash Buffer was removed by aspirating or decanting. TNFα […] conjugate (100 ul) was then added to each well, covered with adhesive strip, incubated for 2 hours at room temperature, and washed and/or aspirated five times.
Substrate solution (100 ul) was then added to each well, incubated in the dark for 30 minutes at room temperature, followed by addition of 100 μl of Stop Solution and mixed. The optical density of each well was determined within 30 minutes by using a microplate reader set to 450 nm.
Plates were read on a Spectrostar Nano machine with built-in MARS data analysis at […].
For TNFα ELISA, the BV-2 cells were very responsive to low concentrations of LPS. A concentration range of 0.1 ng/ml to 1,000 ng/ml was tested. 0.3 ng/ml LPS produced enough TNFα release (8-10 fold above background) from these cells after 22 hours stimulation without saturating the linear range of the ELISA detection system. If higher LPS concentrations are used for stimulating BV-2 cells, a […] is advised to stay within the linear range of the detection system. The current TNFα protocol uses 10,000 cells per well in 96 well plate. A cell count titration can optimize S/B ratio. Miniaturization from 96 well to 384 well is also feasible with this assay.
The TNFα ELISA assay is described in Example 5. The IL-6 assay is described below.

IL-6 = IL-6 secretion from LPS-stimulated BV2 cells (ELISA); assay type: cell-based, murine; settings: BV-2 cells, concentration-response
Experimental: [1] First, 100 μl of supernatant from cell plate was removed and transferred to a dilution plate, followed by centrifugation of the dilution plate at 216×g for 10 minutes to remove particulates. The dilution plate was then either assayed immediately or aliquots were taken and stored at ≤−20° C.; repeated freeze-thaw cycles should be avoided. Mouse IL-6 Standard (500 pg/mL) served as the high standard, and the Calibrator Diluent RD5T served as the zero standard at 0 pg/ml. Assay Diluent RD1-14 (50 μl) was then added to the center of each well and mixed before and during its use. Then, 50 μl of standard, control, or sample was added to the center of each well, and covered with adhesive strip. The plate was then mixed for 1 minute and incubated for 2 hours at room temperature. Each well was then aspirated and washed by filling each well with wash buffer (400 ul) five times. After the last wash, the remaining Wash Buffer was removed by aspirating or decanting. Mouse IL-6 conjugate (100 ul) was then added to each well, covered with adhesive strip, incubated for 2 hours at room temperature, and washed and/or aspirated five times.
Substrate solution (100 ul) was then added to each well, incubated in the dark for 30 minutes at room temperature, followed by addition of 100 ul of Stop Solution and mixed. The optical density of each well was determined within 30 minutes by using a microplate reader set to 450 nm.

sepsis = assay: Mouse model of sepsis / hyperinflammation (virus followed by LPS, as described in Wang); settings: mice, intravenous, various doses
Experimental: Briefly, mice are anesthetized with a ketamine/xylazine mixture. A virus, such as a coronavirus, influenza virus, rhinovirus, respiratory syncytial virus, metapneumovirus, adenovirus, or a boca virus, is administered. The virus may be administered intranasally dropwise.
Next, LPS diluted in a buffer, such as PBS, is injected intraperitoneally at specific doses.
To provide comparators for assessing the effects of TQS-168 and its analogs, groups of positive control mice are treated with one or more antibodies against pro-inflammatory cytokines of interest: anti-NK1.1 antibody (PK136; Bio X Cell) diluted in PBS is injected at 100 μg per injection (100 μL) retro-orbitally concurrently with each challenge; anti-IFNγ antibody (XMG1.2, Bio X Cell) is diluted in PBS and injected at 500 μg per injection (100 μL) retro-orbitally concurrently with each challenge; anti-IL6R (15A7.10 mg/kg; Bio X Cell), anti-TNFα (XT3.11, 500 μg per injection; Bio X Cell), anti-IFNαR (MAR1-5A3, 10 mg/kg; Bio X Cell), and anti-IL1β (B122, 500 μg per injection; Bio X Cell) are injected retro-orbitally. For a negative control, isotype antibody is injected retro-orbitally.
The pro-inflammatory cytokines can be measured using the ELISA assay described in Example 1.

[1] = system: 12 human primary cell-based systems; settings: 5000 μM, comparator profile; cited from earlier work

Compound	disease onset (ALS)	lifespan (ALS)	LPS-stimulated TNFα secretion (TNFα)	LPS-stimulated IL-6 secretion (IL-6)	circulating concentrations of pro-inflammatory cytokines (sepsis)	hyperinflammatory symptoms (sepsis)	T-cell proliferation, IgG, TNFα, and IL-8 [1]
CC(=O)N(O)CCCCCNC(=O)CCC(=O)N(O)CCCCCNC(=O)CCC(=O)N(O)CCCCCN [Deferoxamine, deferoxamine mesylate]	delay	extend					
CC(C)(C)c1ccc(-c2nc3ccncc3[nH]2)cc1 [TQS-234]			decrease	decrease			
CC(C)(C)c1ccc(-c2nc3c(F)cc(F)cc3[nH]2)cc1 [TQS-235]			decrease	decrease	effective in reducing	effective in reducing	
CC(C)(C)c1ccc(-c2nc3cc(C(F)(F)F)ccc3[nH]2)cc1 [TQS-236]			decrease	decrease			
CC(C)(C)c1cccc(-c2nc3c(F)cc(F)cc3[nH]2)c1 [TQS-237]			decrease	decrease	effective in reducing	effective in reducing	
CC(C)(C)c1ccc(-c2cn3ccccc3n2)cc1 [TQS-238]			decrease	decrease			
[2H]c1c([2H])c([2H])c2[nH]c(-c3ccc(C(C)(C)C)cc3)nc2c1[2H] [TQS-239]			decrease	decrease			
CC(C)(C)c1ccc(-c2nc3c(F)c(F)c(F)cc3[nH]2)cc1 [TQS-240]			decrease	decrease	effective in reducing	effective in reducing	
CN(C)C(=N)N=C(N)N [metformin, metformin hydrochloride]							inhibit
